{"source": "PubChem BioAssay AID208", "about": "(DTP/NCI, 2004)", "system": "HT29 intrarenal xenograft, nude mice, tumor weight change", "test": "NCI In Vivo Anticancer Drug Screen. Data for tumor model HT29;CX-1 Human Adenocarcinoma (MER+) (intrarenal inoculation) in NU/NU BALB/C (nude) mice", "conditions": "endpoint: mean tumor weight change, higher = larger tumour", "description": "The antitumor activity of compounds was measured in mice bearing transplantable tumors. Survival or tumor size were measured and the results are expressed as the measurement made in the treated group (T) divided by the measurement made in the vehicle treated control group (C). The tumor model used in this assay is HT29;CX-1 Human Adenocarcinoma (MER+) (intrarenal inoculation) in NU/NU BALB/C (nude) mice", "note": "Inconclusive results are not listed."}
{"smiles": "O=CC(NC(=O)N(CCCl)N=O)C(O)C(O)C(O)CO", "note": "(stereo not given)", "values": [{"measurement": "T/C", "setting": "dose: 1.5 mg/kg/injection, schedule: Q01DX010 (sc), vehicle: Klucel (hydroxypropylcellulose) (HPC)", "result": "45 % of control"}, {"measurement": "T/C", "setting": "dose: 3.0 mg/kg/injection, schedule: Q01DX010 (sc), vehicle: Klucel (hydroxypropylcellulose) (HPC)", "result": "42 % of control"}, {"measurement": "T/C", "setting": "dose: 6.0 mg/kg/injection, schedule: Q01DX010 (sc), vehicle: Klucel (hydroxypropylcellulose) (HPC)", "result": "35 % of control"}]}
{"smiles": "C/C=C/C=C/c1cc2cc3c(c(O)c2c(=O)[nH]1)C1(CC3)C(O)=c2c(=O)c3c(=O)cc(OC)c(=O)c=3c(=O)c2=C1O", "note": "(stereo not given)", "values": [{"measurement": "T/C", "setting": "dose: 6.0 mg/kg/injection, schedule: Q04DX004 (sc), vehicle: DMSO", "result": "75 % of control"}, {"measurement": "T/C", "setting": "dose: 12.0 mg/kg/injection, schedule: Q04DX004 (sc), vehicle: DMSO", "result": "77 % of control"}, {"measurement": "T/C", "setting": "dose: 24.0 mg/kg/injection, schedule: Q04DX004 (sc), vehicle: DMSO", "result": "61 % of control"}, {"measurement": "T/C", "setting": "dose: 48.0 mg/kg/injection, schedule: Q04DX004 (sc), vehicle: DMSO", "result": "58 % of control"}]}
{"smiles": "C[n+]1c(-c2cccc3ccccc23)c2cc(N)ccc2c2ccccc21", "values": [{"measurement": "T/C", "setting": "dose: 3.0 mg/kg/injection, schedule: Q04DX004 (sc), vehicle: saline", "result": "119 % of control"}, {"measurement": "T/C", "setting": "dose: 6.0 mg/kg/injection, schedule: Q04DX004 (sc), vehicle: saline", "result": "152 % of control"}, {"measurement": "T/C", "setting": "dose: 12.0 mg/kg/injection, schedule: Q04DX004 (sc), vehicle: saline", "result": "78 % of control"}]}
{"smiles": "Oc1ccc(O)cc1", "values": [{"measurement": "T/C", "setting": "dose: 100.0 mg/kg/injection, schedule: Q04DX004 (sc), vehicle: saline", "result": "106 % of control"}]}
{"smiles": "[N-]=[N+]=[N-]", "values": [{"measurement": "T/C", "setting": "dose: 1.5 mg/kg/injection, schedule: Q04DX004 (ip), vehicle: water", "result": "79 % of control"}, {"measurement": "T/C", "setting": "dose: 3.0 mg/kg/injection, schedule: Q04DX004 (ip), vehicle: water", "result": "90 % of control"}, {"measurement": "T/C", "setting": "dose: 6.0 mg/kg/injection, schedule: Q04DX004 (ip), vehicle: water", "result": "59 % of control"}, {"measurement": "T/C", "setting": "dose: 12.0 mg/kg/injection, schedule: Q04DX004 (ip), vehicle: water", "result": "62 % of control"}]}
{"smiles": "CCC1=C[C@H]2CN(CCc3c([nH]c4ccccc34)[C@@](C(=O)OC)(c3cc4c(cc3OC)N(C)[C@H]3[C@@](O)(C(=O)OC)[C@H](OC(C)=O)[C@]5(CC)C=CCN6CC[C@]43[C@@H]65)C2)C1", "values": [{"measurement": "T/C", "setting": "dose: 0.38 mg/kg/injection, schedule: Q04DX004 (sc), vehicle: water", "result": "116 % of control"}, {"measurement": "T/C", "setting": "dose: 0.75 mg/kg/injection, schedule: Q04DX004 (sc), vehicle: water", "result": "159 % of control"}, {"measurement": "T/C", "setting": "dose: 1.5 mg/kg/injection, schedule: Q04DX004 (sc), vehicle: water", "result": "118 % of control"}, {"measurement": "T/C", "setting": "dose: 3.0 mg/kg/injection, schedule: Q04DX004 (sc), vehicle: water", "result": "40 % of control"}, {"measurement": "T/C", "setting": "dose: 6.0 mg/kg/injection, schedule: Q04DX004 (sc), vehicle: water", "result": "100 % of control"}, {"measurement": "T/C", "setting": "dose: 12.0 mg/kg/injection, schedule: Q04DX004 (sc), vehicle: water", "result": "66 % of control"}]}
{"smiles": "COC1=C(OC)C(=O)C(SC/C=C(\\C)CCCC(C)CCCC(C)CCCC(C)C)=CC1=O", "note": "(stereo not given)", "values": [{"measurement": "T/C", "setting": "dose: 300.0 mg/kg/injection, schedule: Q04DX004 (ip), vehicle: saline with Tween-80", "result": "97 % of control"}, {"measurement": "T/C", "setting": "dose: 600.0 mg/kg/injection, schedule: Q04DX004 (ip), vehicle: saline with Tween-80", "result": "83 % of control"}, {"measurement": "T/C", "setting": "dose: 1200.0 mg/kg/injection, schedule: Q04DX004 (ip), vehicle: saline with Tween-80", "result": "88 % of control"}]}
{"smiles": "C=COC(=O)C(Cc1ccccc1)NC(=O)OCc1ccccc1", "note": "(stereo not given)", "values": [{"measurement": "T/C", "setting": "dose: 150.0 mg/kg/injection, schedule: Q04DX004 (sc), vehicle: saline with Tween-80", "result": "100 % of control"}, {"measurement": "T/C", "setting": "dose: 300.0 mg/kg/injection, schedule: Q04DX004 (sc), vehicle: saline with Tween-80", "result": "80 % of control"}, {"measurement": "T/C", "setting": "dose: 600.0 mg/kg/injection, schedule: Q04DX004 (sc), vehicle: saline with Tween-80", "result": "123 % of control"}, {"measurement": "T/C", "setting": "dose: 1200.0 mg/kg/injection, schedule: Q04DX004 (sc), vehicle: saline with Tween-80", "result": "60 % of control"}]}
{"smiles": "CCOC(=O)C(CC(C)C)NC(=O)C(Cc1ccc(N(CCCl)CCCl)cc1)NC(C)=O", "note": "(stereo not given)", "values": [{"measurement": "T/C", "setting": "dose: 100.0 mg/kg/injection, schedule: Q01DX010 (sc), vehicle: saline with Tween-80", "result": "46 % of control"}, {"measurement": "T/C", "setting": "dose: 200.0 mg/kg/injection, schedule: Q01DX010 (sc), vehicle: saline with Tween-80", "result": "2 % of control"}]}
